Reference: US6465220B1, “Glycosylation using GalNac-T4 transferase” (GlycoZym ApS, priority 1998, dated 2002)
Like-named read-outs stand apart in the source and are kept apart here. Ends that are not written are not given here.

Experiments:
[1] = biological target: T1, GalNAc-T3 (Homo sapiens, UniProt Q14435); details: donor substrate; data from Wandall et al.; cited from earlier work
T1 construct: Control constructs pAcGP67-GalNAc-T1-sol, pAcGP67-GalNAc-T2-sol, pAcGP67-GalNAc-T3-sol, and pAcGP67-O^2-sol were prepared as previously described; made in house; host or cells: insect cells (baculovirus, pAcGP67)
T1 sequence (Q14435 38-633 limits assumed): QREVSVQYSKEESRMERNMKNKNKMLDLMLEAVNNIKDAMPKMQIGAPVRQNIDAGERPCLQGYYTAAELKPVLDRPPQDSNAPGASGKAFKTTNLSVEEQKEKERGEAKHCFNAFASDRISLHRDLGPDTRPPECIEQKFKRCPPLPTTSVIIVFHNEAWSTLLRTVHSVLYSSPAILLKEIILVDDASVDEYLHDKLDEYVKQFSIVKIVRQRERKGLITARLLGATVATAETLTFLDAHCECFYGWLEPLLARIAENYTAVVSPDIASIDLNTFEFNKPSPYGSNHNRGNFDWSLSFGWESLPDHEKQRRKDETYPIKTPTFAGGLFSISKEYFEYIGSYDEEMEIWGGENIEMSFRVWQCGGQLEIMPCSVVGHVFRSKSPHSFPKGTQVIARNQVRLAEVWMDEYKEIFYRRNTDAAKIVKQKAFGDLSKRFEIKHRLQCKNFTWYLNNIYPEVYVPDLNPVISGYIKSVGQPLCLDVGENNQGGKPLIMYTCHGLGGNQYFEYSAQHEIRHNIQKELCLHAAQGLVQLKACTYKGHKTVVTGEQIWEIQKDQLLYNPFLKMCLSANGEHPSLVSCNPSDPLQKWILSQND

[2] = biological target: T2, GalNAc-T4 (Homo sapiens, UniProt Q8N4A0); assay: GalNAc-transferase assay with purified recombinant GalNAc-T4; assay type: biochemical
T2 construct: made in house; host or cells: High Five insect cells (baculovirus, pAcGP67 vector)
Experimental: (§1) In the examples, GalNAc-transferase assays were performed in 50 μl total reaction mixtures containing 25 mM cacodylate (pH 7.5), 10 mM MnCl2, 0.1-0.25% Triton X-100, 150-200 μM UDP-[^14C]-GalNAc (4,000 cpm/nmole) (Amersham) and 0.06-1 mM acceptor peptides. Peptides were either synthesized or obtained from Carlbiotech (Copenhagen), or Neosystems (Strasbourg), and quality was ascertained by amino acid analysis and mass spectrometry. Peptides Muc-1a, Muc-1b, and TAP24, were derived from the tandem repeat of human MUC1, Gendler et al., J. Biol. Chem. 265:15286 (1990), and Muc2, Muc5AC, and Muc7 from the tandem repeats of MUC2, MUC5AC, and MUC7, respectively. Gum et al., J. Biol. Chem. 264:6480 (1989); Porchet et al., Biochem. Soc. Trans. 23:800 (1995); Bobek et al., J. Biol. Chem. 268:20563 (1993). GalNAc4TAP24 was produced by in vitro glycosylation using GalNAc-T2 as described in Wandall et al., J. Biol. Chem. 272:23503 (1997). Products were quantified by scintillation counting after chromatography on Dowex-1, octadecyl silica cartridges (Bakerbond), or HPLC (PC3.2/3 or mRPC C2/C18 SC2.1/10 Pharmacia, Smart System). Products produced by in vitro glycosylation were in most cases also confirmed by mass spectrometry.
In this example, GalNAc-T4 was expressed in Sf9 insect cells. Expression constructs designed to contain amino acid residues 32-578 of the coding sequence of the putative GalNAc-T4 gene shown in SEQ ID NO:1 prepared by genomic PCR of two clones containing GalNAc-T4 (described in Bennett et al. (1998), supra) were cloned into a BamHI site of the expression vector pAcGP67 (Pharmingen), and the expression construct was sequenced. The constructs pAcGP67-GalNAc-T4506Vsol and pAcGP67-GalNAc-T4506 I sol, were designed to yield a putative soluble form of the GalNAc-T4 protein with an N-terminal end positioned immediately C-terminal to a potential transmembrane domain and including the entire sequence expected to contain the catalytic domain. […] Res. Comm. 211:347 (1995).
The activities presented in Table I were obtained with purified GalNAc-T4 and -T2, and are expressed as mU/mg (the concentration of enzyme protein estimated by SDS-PAGE using BSA as standard).

[3] = biological target: T3, GalNAc-T2 (Homo sapiens, UniProt Q10471); details: donor substrate; data from Wandall et al.; cited from earlier work
T3 construct: Control constructs pAcGP67-GalNAc-T1-sol, pAcGP67-GalNAc-T2-sol, pAcGP67-GalNAc-T3-sol, and pAcGP67-O^2-sol were prepared as previously described; made in house; host or cells: insect cells (baculovirus, pAcGP67)

[4] = biological target: T4, GalNAc-T1 (Homo sapiens, UniProt Q10472); details: donor substrate; data from Wandall et al.; cited from earlier work
T4 construct: Control constructs pAcGP67-GalNAc-T1-sol, pAcGP67-GalNAc-T2-sol, pAcGP67-GalNAc-T3-sol, and pAcGP67-O^2-sol were prepared as previously described; made in house; host or cells: insect cells (baculovirus, pAcGP67)
T4 sequence (Q10472 41-559 limits assumed): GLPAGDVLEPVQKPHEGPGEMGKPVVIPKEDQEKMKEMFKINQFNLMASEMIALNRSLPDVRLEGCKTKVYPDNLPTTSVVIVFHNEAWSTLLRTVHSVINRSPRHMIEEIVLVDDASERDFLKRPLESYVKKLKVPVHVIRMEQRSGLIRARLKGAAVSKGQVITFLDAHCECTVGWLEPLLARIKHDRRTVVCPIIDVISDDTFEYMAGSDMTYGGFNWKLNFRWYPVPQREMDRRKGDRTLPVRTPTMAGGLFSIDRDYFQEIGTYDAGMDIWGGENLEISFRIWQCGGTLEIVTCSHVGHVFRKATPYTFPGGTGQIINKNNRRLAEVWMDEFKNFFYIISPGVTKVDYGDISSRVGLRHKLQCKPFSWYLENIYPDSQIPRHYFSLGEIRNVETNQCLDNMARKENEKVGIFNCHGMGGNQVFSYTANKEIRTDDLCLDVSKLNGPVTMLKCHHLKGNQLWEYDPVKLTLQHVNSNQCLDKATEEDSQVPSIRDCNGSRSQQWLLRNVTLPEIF

[5] = biological target: T1, GalNAc-T3; assay: GalNAc-transferase assay with purified recombinant GalNAc-T3; assay type: biochemical
Experimental: as §1, with “The following examples are provided to illustrate certain preferred embodiments of the invention, and should be considered as illustration and not as limitation. In” for “In”
(§2) In this example, GalNAc-T4 was expressed in Sf9 insect cells. Expression constructs designed to contain amino acid residues 32-578 of the coding sequence of the putative GalNAc-T4 gene shown in SEQ ID NO:1 prepared by genomic PCR of two clones containing GalNAc-T4 (described in Bennett et al. (1998), supra) were cloned into a BamHI site of the expression vector pAcGP67 (Pharmingen), and the expression construct was sequenced. The constructs pAcGP67-GalNAc-T4506Vsol and pAcGP67-GalNAc-T4506 I sol, were designed to yield a putative soluble form of the GalNAc-T4 protein with an N-terminal end positioned immediately C-terminal to a potential transmembrane domain and including the entire sequence expected to contain the catalytic domain. Control constructs pAcGP67-GalNAc-T1-sol, pAcGP67-GalNAc-T2-sol, pAcGP67-GalNAc-T3-sol, and pAcGP67-O^2-sol were prepared as previously described in White et al., J. Biol. Chem 270:24156 (1995); Bennett et al., J. Biol. Chem. 271:17006 (1996); and Bennett et al., Biochem. Biophys. Res. Comm. 211:347 (1995).

[6] = biological target: T3, GalNAc-T2; assay: GalNAc-transferase assay with purified recombinant GalNAc-T2; assay type: biochemical
Experimental: as §1, with “The following examples are provided to illustrate certain preferred embodiments of the invention, and should be considered as illustration and not as limitation. In” for “In”
as §2
Activities measured with the mucin derived substrates, Muc7, EA2, and Muc2 (see Table I for structures and SEQ ID NOs:19, 25 and 18, respectively), were only 2-7 fold over background values. Very low activities with a few other substrates were also observed, but for many of the “mucin-like” substrates a relative high background with Sf9 cells infected with irrelevant constructs made assessment difficult. GalNAc-T4 was expressed in High Five cells and purified to near homogeneity, however, very low endogenous activity was detected with some substrates in the same fractions when medium from cells infected with irrelevant expression constructs were used in the same purification strategy. The activities presented in Table I were obtained with purified GalNAc-T4 and -T2, and are expressed as mU/mg (the concentration of enzyme protein estimated by SDS-PAGE using BSA as standard). The highest activities with GalNAc-T4 were found from assays of Sf9 medium with the mucin peptides Muc7, EA2, and Muc2, however, the efficiencies with these substrates were considerably lower than GalNAc-T2.

[7] = biological target: T4, GalNAc-T1; assay: GalNAc-transferase assay with purified recombinant GalNAc-T1; assay type: biochemical; details: acceptor substrate
Experimental: as §1, with “The following examples are provided to illustrate certain preferred embodiments of the invention, and should be considered as illustration and not as limitation. In” for “In”
In this example, GalNAc-T4 was expressed in Sf9 insect cells. Expression constructs designed to contain amino acid residues 32-578 of the coding sequence of the putative GalNAc-T4 gene shown in SEQ ID NO:1 prepared by genomic PCR of two clones containing GalNAc-T4 (described in Bennett et al. (1998), supra) were cloned into a BamHI site of the expression vector pAcGP67 (Pharmingen), and the expression construct was sequenced. […]

For CC(=O)N[C@H]1[C@@H](OP(=O)(O)OP(=O)(O)OC[C@H]2O[C@@H](n3ccc(=O)[nH]c3=O)[C@H](O)[C@@H]2O)O[C@H](CO)[C@H](O)[C@@H]1O [UDP-GalNAc, UDP-N-acetylgalactosamine], the Km [1] is given as 29 µM, the Km ([2]; donor substrate, saturating concentration of Muc7 as substrate, read-out: Km GalNAc-T4) is given as 160 µM and the Km ([2]; using the Muc7 acceptor substrate, read-out: Km of purified GalNAc-T4 for UDP-GalNAc) is given as 160 µM. For the same compound, the Km [3] was 10 µM and the Km [4] was 62 µM.

With CC(=O)N[C@H]1[C@@H](OP(=O)(O)OP(=O)(O)OC[C@H]2O[C@@H](n3ccc(=O)[nH]c3=O)[C@H](O)[C@@H]2O)O[C@H](CO)[C@@H](O)[C@@H]1O [UDP-GlcNAc] the “incorporation with alternative donor substrate” value ([2]; Muc7 acceptor peptide) was “No incorporation”.

With “AHGVTSAPDTR [Muc1a′, peptide derived from the tandem repeat of human MUC1]” the “specific activity of GalNAc-T3” value ([5]; with Muc1a) was 0.5 U/mg, the “GalNAc-T4 activity with acceptor peptide” value ([2]; 0.25 mM peptide in 50-μl assay) was 2 ± 0.4 milliunits/mg and the “GalNAc-T4 activity with acceptor peptide” value ([2]; 1 mM peptide in 50-μl assay) was 6.7 ± 1 milliunits/mg. For the same compound, the “GalNAc-T4 activity with substrate (in words)” value ([2]; purified GalNAc-T4) was “somewhat poor activities”, the “GalNAc-T2 activity with acceptor peptide” value ([6]; 0.25 mM peptide in 50-μl assay) was 28 ± 5 milliunits/mg and the “GalNAc-T2 activity with acceptor peptide” value ([6]; 1 mM peptide in 50-μl assay) was 83 ± 2 milliunits/mg.

With Ac-QATEYEYLDYDFLPETEPPEM [PSGL-1b] the Km [7] was greater than 2000 µM, the Km ([5]; acceptor substrate) was greater than 2000 µM and the Km ([6]; acceptor substrate) was greater than 2000 µM.
